Results from ChEMBL document CHEMBL3243999, “Novel anxiolytic agents derived from alpha-amino-alpha-phenyl-o-tolyl-4H-triazoles and -imidazoles” (J Med Chem, 1978).

Columns and labels:
[1] = tested on: Mus musculus; assay: Anticonvulsant activity in ip dosed CF-1 albino mouse assessed as antagonism of pentylenetetrazole-induced clonic convulsions; assay type: functional
[2] = tested on: Brain; assay: Drug metabolism in mouse brain assessed as un-identified metabolite formation at 20 mg/kg, ip after 0.5 hrs by GLC-electron capture detection analysis; assay type: ADME, organism-based; set-up: dose 20 mg/kg, route intraperitoneal; settings: in vivo
[3] = tested on: Mus musculus; assay: Anticonvulsant activity in ip dosed CF-1 albino mouse assessed as antagonism of thiosemicarbazide-induced lethality; assay type: functional; settings: CF-1, ip
[4] = tested on: Mus musculus; assay: Anticonvulsant activity in ip dosed CF-1 albino mouse assessed as antagonism of nicotine-induced death; assay type: functional
[5] = tested on: Rattus norvegicus; assay: Anticonvulsant activity in po dosed Sprague-Dawley rat assessed as antagonism of pentylenetetrazole-induced clonic convulsions; assay type: functional
[6] = tested on: Mus musculus; assay: Muscle relaxing activity in ip dosed CF-1 albino mouse by chimney test; assay type: functional
[7] = tested on: Mus musculus; assay: Muscle relaxing activity in ip dosed CF-1 albino mouse assessed as depression of dish reflexes; assay type: functional
[8] = Retention time of the compound by GLC-electron capture detection analysis; assay type: physicochemical
[9] = tested on: Mus musculus; assay: Sedative activity in ip dosed CF-1 albino mouse assessed as muscle relaxation by measuring depression of traction; assay type: functional
[10] = tested on: Brain; assay: Drug metabolism in mouse brain assessed as unchanged drug level at 20 mg/kg, ip after 20 mins by GC-MS analysis; assay type: ADME, organism-based; set-up: dose 20 mg/kg, route intraperitoneal; settings: in vivo
[11] = tested on: Mus musculus; assay: Anxiolytic activity in ip dosed CF-1 albino mouse assessed as antagonism of electric shock-induced effect; assay type: functional; settings: CF-1, ip
[12] = tested on: Mus musculus; assay: Anticonvulsant activity in ip dosed CF-1 albino mouse assessed as antagonism of nicotine-induced tonic extensor convulsions; assay type: functional
[13] = tested on: Mus musculus; assay: Drug metabolism in mouse silylated blood assessed as triazolobenzodiazepine metabolite formation at 30 mg/kg, ip after 30 mins by GC-MS analysis; assay type: ADME, organism-based; set-up: dose 30 mg/kg, route intraperitoneal; settings: in vivo, 0.5 h
[14] = tested on: Brain; assay: Drug metabolism in Sprague-Dawley rat brain assessed as triazolam metabolite formation at 20 mg/kg, ip after 0.5 hrs by GLC-electron capture detection analysis; assay type: ADME, organism-based; set-up: dose 20 mg/kg, route intraperitoneal; settings: in vivo
[15] = tested on: Brain; assay: Drug metabolism in Sprague-Dawley rat brain assessed as unchanged drug level at 20 mg/kg, ip after 20 mins by GC-MS analysis; assay type: ADME, organism-based; set-up: dose 20 mg/kg, route intraperitoneal; settings: in vivo
[16] = tested on: Mus musculus; assay: Anticonvulsant activity in po dosed CF-1 albino mouse assessed as antagonism of pentylenetetrazole-induced clonic convulsions; assay type: functional; settings: CF-1, po
[17] = tested on: Brain; assay: Drug level in mouse brain treated with (5-chloro-2-(3,5-dimethyl-4H-1,2,4-triazol-4-yl)phenyl)(2-chlorophenyl)methanamine at 20 mg/kg, ip after 20 mins by GC-MS analysis; assay type: ADME, organism-based; set-up: dose 20 mg/kg, route intraperitoneal; settings: in vivo
[18] = tested on: Brain; assay: Drug level in Sprague-Dawley rat brain treated with (5-chloro-2-(3,5-dimethyl-4H-1,2,4-triazol-4-yl)phenyl)(2-chlorophenyl)methanamine at 20 mg/kg, ip after 20 mins by GC-MS analysis; assay type: ADME, organism-based; set-up: dose 20 mg/kg, route intraperitoneal; settings: in vivo
[19] = tested on: Brain; assay: Retention time of the compound in mouse brain treated with (5-chloro-2-(3,5-dimethyl-4H-1,2,4-triazol-4-yl)phenyl)(2-chlorophenyl)methanamine at 20 mg/kg, ip after 0.5 hrs by GLC-electron capture detection analysis; assay type: ADME, organism-based; set-up: dose 20 mg/kg, route intraperitoneal; settings: in vivo
[20] = Mus musculus, CF-1, ip, read-out: ED50

SMILES | ED50 [1, 20] | ED50 [3] | ED50 [4, 20] | ED50 [6, 20] | ED50 [7, 20] | ED50 [9, 20] | ED50 [11] | ED50 [12, 20] | other results
Cc1nnc(C)n1-c1ccc(Cl)cc1C(N)c1ccccc1 (stereo unspecified) | 16 mg/kg |  |  |  |  |  |  |  | 
Cc1nnc(C)n1-c1ccc(Cl)cc1C(N)c1ccccc1Cl (stereo unspecified) | 1.2 mg/kg | 0.4 mg/kg | 0.5 mg/kg | 6.3 mg/kg | 3.2 mg/kg | > 100 mg/kg | > 100 mg/kg | 0.5 mg/kg | Drug metabolism [2]: metabolite_detected; ED50 [5]: > 50 mg/kg; Retention_time [8]: 9 min; Drug metabolism [10]: 65 ng; Drug metabolism [13]: metabolite_detected; Drug metabolism [14]: metabolite_notdetected; Drug metabolism [15]: 272 ng
CC(C)=NC(c1ccccc1Cl)c1cc(Cl)ccc1-n1c(C)nnc1C (stereo unspecified) | 1.2 mg/kg | 0.34 mg/kg | 0.85 mg/kg | 6 mg/kg | 6.6 mg/kg | > 30 mg/kg |  | 0.75 mg/kg | 
Cc1nnc(CN(C)C)n1-c1ccc(Cl)cc1C(N)c1ccccc1Cl (stereo unspecified) | 0.2 mg/kg | 0.09 mg/kg | 0.18 mg/kg | 0.71 mg/kg | 0.56 mg/kg | 1.4 mg/kg | 40 mg/kg | 0.25 mg/kg | ED50 [5]: 4.4 mg/kg; ED50 [16]: 0.6 mg/kg
CN/N=C/c1nnc(C)n1-c1ccc(Cl)cc1C(N)c1ccccc1Cl (stereo unspecified) | 1.2 mg/kg |  | 1.4 mg/kg | 7 mg/kg | 0.4 mg/kg | 20 mg/kg | > 100 mg/kg | 1.3 mg/kg | 
Cc1cn(-c2ccc(Cl)cc2C(N)c2ccccc2Cl)c(C)n1 (stereo unspecified) |  | 1.8 mg/kg | 3.6 mg/kg | > 100 mg/kg | 20 mg/kg | > 100 mg/kg | > 100 mg/kg | 3.6 mg/kg | 
Br.Cc1nccn1-c1ccc(Cl)cc1C(N)c1ccccc1 (stereo unspecified) |  |  | 9 mg/kg | 18 mg/kg | 16 mg/kg | 32 mg/kg |  | 9 mg/kg | 
Cc1nnc(CN)n1-c1ccc(Cl)cc1Cc1ccccc1 | 12.5 mg/kg |  | 6.2 mg/kg | 18 mg/kg | 14 mg/kg | 25 mg/kg |  | 7 mg/kg | 
Cc1nnc(CN(C)C)n1-c1ccc(Cl)cc1C(=O)c1ccccc1Cl | 0.28 mg/kg | 0.02 mg/kg | 0.14 mg/kg |  | 0.25 mg/kg | 3.2 mg/kg | 50 mg/kg | 0.14 mg/kg | 
Cc1nnc(/C=N/N(C)C)n1-c1ccc(Cl)cc1C(N)c1ccccc1Cl (single isomer, unassigned) |  |  |  |  |  |  |  |  | ED50 [4]: 4 mg/kg; ED50 [6]: 16 mg/kg; ED50 [7]: 7.1 mg/kg; ED50 [1]: 5.6 mg/kg; ED50 [9]: 50 mg/kg; ED50 [12]: 4 mg/kg
Cc1nnc(C2CC2)n1-c1ccc(Cl)cc1C(N)c1ccccc1Cl (single isomer, unassigned; isomer 1) | 40 mg/kg |  | 2.3 mg/kg | 40 mg/kg |  | > 50 mg/kg |  | 2.3 mg/kg | ED50 [7]: 4.5 mg/kg
Cc1nnc(CO)n1-c1ccc(Cl)cc1C(N)c1ccccc1Cl (single isomer, unassigned; isomer 1) | 1.2 mg/kg |  | 0.5 mg/kg | 0.63 mg/kg |  | 16 mg/kg |  | 0.4 mg/kg | ED50 [5]: > 50 mg/kg; ED50 [7]: 1.1 mg/kg; ED50 [16]: 6.2 mg/kg
Cc1nnc(/C=N/N(C)C)n1-c1ccc(Cl)cc1C(N)c1ccccc1Cl (single isomer, unassigned; isomer 1) | 8.9 mg/kg |  | 8 mg/kg | 22 mg/kg | 11.2 mg/kg | 71 mg/kg | > 100 mg/kg | 5.6 mg/kg | 
Cc1nnc(CO)n1-c1ccc(Cl)cc1C(N)c1ccccc1Cl (single isomer, unassigned; isomer 2) |  |  |  |  |  |  |  |  | ED50 [4]: 0.3 mg/kg; ED50 [6]: 0.5 mg/kg; ED50 [7]: 3.5 mg/kg; ED50 [1]: 1 mg/kg; ED50 [9]: 8 mg/kg; ED50 [12]: 0.3 mg/kg
Cc1nnc(C2CC2)n1-c1ccc(Cl)cc1C(N)c1ccccc1Cl (stereo in doubt; 21b) |  |  |  |  |  |  |  |  | ED50 [4]: 2 mg/kg; ED50 [6]: 56 mg/kg; ED50 [7]: 40 mg/kg; ED50 [1]: >50 mg/kg; ED50 [9]: >100 mg/kg; ED50 [12]: 2.8 mg/kg
Cc1nnc2n1-c1ccc(Cl)cc1C(c1ccccc1)=NC2 [ALPRAZOLAM] |  |  |  |  |  |  |  |  | Retention_time [8]: 12 min
CN1C(=O)CN=C(c2ccccc2)c2cc(Cl)ccc21 [DIAZEPAM] | 0.8 mg/kg | 0.2 mg/kg | 0.11 mg/kg |  | 0.31 mg/kg | 5 mg/kg | 20 mg/kg | 0.11 mg/kg | ED50 [5]: 4.8 mg/kg
Cc1nnc2n1-c1ccc(Cl)cc1C(c1ccccc1Cl)=NC2 [TRIAZOLAM] | 0.04 mg/kg | 0.028 mg/kg | 0.04 mg/kg | 0.056 mg/kg | 0.1 mg/kg | 0.7 mg/kg | 23 mg/kg | 0.04 mg/kg | ED50 [5]: 0.18 mg/kg; Drug metabolism [17]: 190 ng; Retention_time [8]: 15 min; Drug metabolism [18]: 4 ng; Retention_time [19]: 15 min
